Reference: article PMC5218480 (PLoS ONE, 2017)

Test system: MV-4-11 cells
Assay: Gene expression microarray analysis (Affymetrix PrimeView) and GSEA
Type: cell-based, human
Parameters: RFU PODN (11730768_x_at) / Fold change /veh PODN (11730768_x_at) / RFU LINC00158 (11744669_a_at) / Fold change /veh LINC00158 (11744669_a_at) / RFU DUSP10 (11751237_a_at) / Fold change /veh DUSP10 (11751237_a_at) / RFU ID3 (11757404_x_at) / Fold change /veh ID3 (11757404_x_at) / RFU PLEKHG5 (11737974_s_at) / Fold change /veh PLEKHG5 (11737974_s_at) / RFU LRRC4B (11730491_at) / Fold change /veh LRRC4B (11730491_at) / RFU GIMAP4 (11747438_a_at) / Fold change /veh GIMAP4 (11747438_a_at) / RFU KRT8 (11758183_x_at) / Fold change /veh KRT8 (11758183_x_at) / RFU CNN1 (11734310_a_at) / Fold change /veh CNN1 (11734310_a_at) / RFU VPS37D (11726825_at) / Fold change /veh VPS37D (11726825_at) / RFU C10orf10 (11716522_x_at) / Fold change /veh C10orf10 (11716522_x_at) / RFU KIR2DL2 /// KIR2DL4 /// KIR2DL5A /// KIR2DL5B /// KIR2DS1 /// KIR2DS2 /// KIR2DS3 /// KIR2DS4 /// KIR3DL3 /// KIR3DL3 /// KIR3DS1 (11738374_at) / Fold change /veh KIR2DL2 /// KIR2DL4 /// KIR2DL5A /// KIR2DL5B /// KIR2DS1 /// KIR2DS2 /// KIR2DS3 /// KIR2DS4 /// KIR3DL3 /// KIR3DL3 /// KIR3DS1 (11738374_at) / RFU C1QL1 (11718748_at) / Fold change /veh C1QL1 (11718748_at) / RFU TMPRSS4 (11747572_a_at) / Fold change /veh TMPRSS4 (11747572_a_at) / RFU HAMP (11756126_x_at) / Fold change /veh HAMP (11756126_x_at) / RFU RNFT2 (11725882_a_at) / Fold change /veh RNFT2 (11725882_a_at) / RFU NR4A2 (11747474_a_at) / Fold change /veh NR4A2 (11747474_a_at) / RFU ABCC12 (11746883_a_at) / Fold change /veh ABCC12 (11746883_a_at) / RFU TMEM136 (11760407_x_at) / Fold change /veh TMEM136 (11760407_x_at) / RFU CLDN22 /// WWC2 (11732394_at) / Fold change /veh CLDN22 /// WWC2 (11732394_at) / RFU HLA-DPB1 (11760878_x_at) / Fold change /veh HLA-DPB1 (11760878_x_at) / RFU SPINT1 (11716480_a_at) / Fold change /veh SPINT1 (11716480_a_at) / RFU GAP43 (11754022_s_at) / Fold change /veh GAP43 (11754022_s_at) / RFU A4GNT (11735810_at) / Fold change /veh A4GNT (11735810_at) / RFU PRB3 (11715151_x_at) / Fold change /veh PRB3 (11715151_x_at) / RFU TUBB4B (11761932_at) / Fold change /veh TUBB4B (11761932_at) / RFU CAPN14 (11732068_a_at) / Fold change /veh CAPN14 (11732068_a_at) / RFU TMCC2 (11721928_a_at) / Fold change /veh TMCC2 (11721928_a_at) / RFU IRGQ (11745062_a_at) / Fold change /veh IRGQ (11745062_a_at) / RFU FAM174B (11720279_a_at) / Fold change /veh FAM174B (11720279_a_at) / RFU TMPRSS4 (11748680_a_at) / Fold change /veh TMPRSS4 (11748680_a_at) / RFU FAM212B (11763350_a_at) / Fold change /veh FAM212B (11763350_a_at) / RFU PLEKHG5 (11743358_a_at) / Fold change /veh PLEKHG5 (11743358_a_at) / RFU ZSCAN30 (11745921_a_at) / Fold change /veh ZSCAN30 (11745921_a_at) / RFU CMKLR1 (11741424_a_at) / Fold change /veh CMKLR1 (11741424_a_at) / RFU LOC101060620 /// MAPK8IP1 (11723275_at) / Fold change /veh LOC101060620 /// MAPK8IP1 (11723275_at) / RFU SPTSSB (11747773_x_at) / Fold change /veh SPTSSB (11747773_x_at) / RFU PRSS12 (11739890_at) / Fold change /veh PRSS12 (11739890_at) / RFU BIN1 (11741810_x_at) / Fold change /veh BIN1 (11741810_x_at) / RFU WNT11 (11732464_a_at) / Fold change /veh WNT11 (11732464_a_at) / RFU C10orf10 (11716521_a_at) / Fold change /veh C10orf10 (11716521_a_at) / RFU C5orf56 (11738089_at) / Fold change /veh C5orf56 (11738089_at) / RFU CYB561 (11721691_x_at) / Fold change /veh CYB561 (11721691_x_at) / RFU ANKRD19P (11752326_a_at) / Fold change /veh ANKRD19P (11752326_a_at) / RFU OR2T12 /// OR2T33 /// OR2T8 (11738714_s_at) / Fold change /veh OR2T12 /// OR2T33 /// OR2T8 (11738714_s_at) / RFU VCAN (11748164_a_at) / Fold change /veh VCAN (11748164_a_at) / RFU JSRP1 (11732532_at) / Fold change /veh JSRP1 (11732532_at) / RFU KRTAP10-11 (11738290_x_at) / Fold change /veh KRTAP10-11 (11738290_x_at) / RFU MYO3A (11730013_a_at) / Fold change /veh MYO3A (11730013_a_at) / RFU EBF3 (11725865_a_at) / Fold change /veh EBF3 (11725865_a_at) / RFU CAMK2N1 (11719241_x_at) / Fold change /veh CAMK2N1 (11719241_x_at) / RFU C5orf56 (11738088_a_at) / Fold change /veh C5orf56 (11738088_a_at) / RFU OLFML3 (11715873_a_at) / Fold change /veh OLFML3 (11715873_a_at) / RFU LOC100653217 /// NTM (11731650_a_at) / Fold change /veh LOC100653217 /// NTM (11731650_a_at) / RFU MAPK11 (11762145_a_at) / Fold change /veh MAPK11 (11762145_a_at) / RFU FIZ1 (11724087_x_at) / Fold change /veh FIZ1 (11724087_x_at) / RFU OASL (11726364_x_at) / Fold change /veh OASL (11726364_x_at) / RFU SOX15 (11748057_x_at) / Fold change /veh SOX15 (11748057_x_at) / RFU CD79A (11719716_a_at) / Fold change /veh CD79A (11719716_a_at) / RFU HIST1H1D (11736915_at) / Fold change /veh HIST1H1D (11736915_at) / RFU CASKIN2 (11723855_a_at) / Fold change /veh CASKIN2 (11723855_a_at) / RFU LOC730098 (11760151_x_at) / Fold change /veh LOC730098 (11760151_x_at) / RFU OR4N2 (11742367_at) / Fold change /veh OR4N2 (11742367_at) / RFU PRRT2 (11749266_a_at) / Fold change /veh PRRT2 (11749266_a_at) / RFU SNX32 (11753110_a_at) / Fold change /veh SNX32 (11753110_a_at) / RFU CDHR5 (11726645_a_at) / Fold change /veh CDHR5 (11726645_a_at) / RFU RCAN1 (11760418_a_at) / Fold change /veh RCAN1 (11760418_a_at) / RFU FAM167A (11723789_a_at) / Fold change /veh FAM167A (11723789_a_at) / RFU FAM26E (11764081_at) / Fold change /veh FAM26E (11764081_at) / RFU ISYNA1 (11749810_s_at) / Fold change /veh ISYNA1 (11749810_s_at) / RFU ACY1 (11761880_at) / Fold change /veh ACY1 (11761880_at) / RFU 11764098_at / Fold change /veh 11764098_at / RFU SAMD14 (11745864_x_at) / Fold change /veh SAMD14 (11745864_x_at) / RFU NPB (11741838_a_at) / Fold change /veh NPB (11741838_a_at) / RFU TMPRSS6 (11731388_a_at) / Fold change /veh TMPRSS6 (11731388_a_at) / RFU KRTAP10-2 (11738614_at) / Fold change /veh KRTAP10-2 (11738614_at) / RFU ARHGAP8 /// PRR5-ARHGAP8 (11727945_x_at) / Fold change /veh ARHGAP8 /// PRR5-ARHGAP8 (11727945_x_at) / RFU KRTAP5-7 /// NADSYN1 (11734609_at) / Fold change /veh KRTAP5-7 /// NADSYN1 (11734609_at) / RFU RASL12 (11751679_a_at) / Fold change /veh RASL12 (11751679_a_at) / RFU CDKN2B (11736163_a_at) / Fold change /veh CDKN2B (11736163_a_at) / RFU PRF1 (11729649_at) / Fold change /veh PRF1 (11729649_at) / RFU, ZNF638 /// ZNF638-IT1 / Fold change vs veh, ZNF638 /// ZNF638-IT1 / RFU, PANK3 / Fold change vs veh, PANK3 / RFU, SH3YL1 / Fold change vs veh, SH3YL1 / RFU, ZEB2 / Fold change vs veh, ZEB2 / RFU, NRIP1 / Fold change vs veh, NRIP1 / RFU, PTTG1IP / Fold change vs veh, PTTG1IP / RFU, CAPN2 / Fold change vs veh, CAPN2 / RFU, MED14 / Fold change vs veh, MED14 / RFU, SNORA58 / Fold change vs veh, SNORA58 / RFU, C1orf63 / Fold change vs veh, C1orf63 / RFU, LRRFIP1 / Fold change vs veh, LRRFIP1 / RFU, NDUFAF7 / Fold change vs veh, NDUFAF7 / RFU, SLC12A2 / Fold change vs veh, SLC12A2 / RFU, IBTK / Fold change vs veh, IBTK / RFU, ESF1 / Fold change vs veh, ESF1 / Fold change vs veh, TMEM50B / RFU, TAOK1 / Fold change vs veh, TAOK1 / RFU, ACBD3 / Fold change vs veh, ACBD3 / RFU, TMA16 / Fold change vs veh, TMA16 / RFU, RWDD3 / Fold change vs veh, RWDD3 / RFU, BCAT1 / Fold change vs veh, BCAT1 / RFU, EDEM3 / Fold change vs veh, EDEM3 / RFU, TMEM33 / Fold change vs veh, TMEM33 / RFU, WDR75 / Fold change vs veh, WDR75 / RFU, AHCTF1 / Fold change vs veh, AHCTF1 / RFU, TFRC / Fold change vs veh, TFRC / RFU, ZDHHC17 / Fold change vs veh, ZDHHC17 / RFU, NOM1 / Fold change vs veh, NOM1 / RFU, ARL8B / Fold change vs veh, ARL8B / RFU, ZBTB11 / Fold change vs veh, ZBTB11 / RFU, TAMM41 / Fold change vs veh, TAMM41 / RFU, KIAA1704 /// LOC100996395 / Fold change vs veh, KIAA1704 /// LOC100996395 / RFU, ING1 / Fold change vs veh, ING1 / RFU, TRMT61B / Fold change vs veh, TRMT61B / RFU, FUBP3 / Fold change vs veh, FUBP3 / RFU, TP53 / Fold change vs veh, TP53 / RFU, TNKS2 / Fold change vs veh, TNKS2 / RFU, ZFP14 / Fold change vs veh, ZFP14 / RFU, ACTR2 / Fold change vs veh, ACTR2 / RFU, PPP3R1 / Fold change vs veh, PPP3R1 / RFU, PIK3R1 / Fold change vs veh, PIK3R1 / RFU, HNRNPA1 / Fold change vs veh, HNRNPA1 / RFU, RNF170 / Fold change vs veh, RNF170 / RFU, ZNF28 / Fold change vs veh, ZNF28 / RFU, RNGTT / Fold change vs veh, RNGTT / RFU, OGT / Fold change vs veh, OGT / RFU, BRD1 / Fold change vs veh, BRD1 / RFU, MARS / Fold change vs veh, MARS / RFU, ZNF655 / Fold change vs veh, ZNF655 / RFU, FAHD1 / Fold change vs veh, FAHD1 / RFU, BDP1 / Fold change vs veh, BDP1 / RFU, LRRCC1 / Fold change vs veh, LRRCC1 / RFU, ARID1A / Fold change vs veh, ARID1A / RFU, ZNF146 / Fold change vs veh, ZNF146 / RFU, ZNF330 / Fold change vs veh, ZNF330 / RFU, GPN3 / Fold change vs veh, GPN3 / RFU, C9orf123 / Fold change vs veh, C9orf123 / RFU, N4BP2L2 / Fold change vs veh, N4BP2L2 / RFU, ARFIP1 / Fold change vs veh, ARFIP1 / RFU, FAM179B / Fold change vs veh, FAM179B / RFU, BCL10 / Fold change vs veh, BCL10 / RFU, UHRF1BP1L / Fold change vs veh, UHRF1BP1L / RFU, BET1 / Fold change vs veh, BET1 / RFU, CNOT2 / Fold change vs veh, CNOT2 / RFU, ZNF268 / Fold change vs veh, ZNF268 / Fold change vs veh, ZNF507 / RFU, DGCR2 / Fold change vs veh, DGCR2 / RFU, WDSUB1 / Fold change vs veh, WDSUB1 / Fold change vs veh, HSP90B1 /// MIR3652 / RFU, ADSS / Fold change vs veh, ADSS / RFU, GK / Fold change vs veh, GK / RFU, ZNF148 / Fold change vs veh, ZNF148 / RFU, TAF9 / Fold change vs veh, TAF9 / RFU, SLC1A5 / Fold change vs veh, SLC1A5 / RFU, SLMO2 / Fold change vs veh, SLMO2 / RFU, ABCC4 / Fold change vs veh, ABCC4 / RFU, LOC101060439 /// RAP1B / Fold change vs veh, LOC101060439 /// RAP1B / RFU, RFX7 / Fold change vs veh, RFX7 / RFU, GTPBP10 / Fold change vs veh, GTPBP10 / RFU, CNEP1R1 / Fold change vs veh, CNEP1R1 / RFU, BIVM-ERCC5 /// ERCC5 / Fold change vs veh, BIVM-ERCC5 /// ERCC5 / RFU, ILF3 / Fold change vs veh, ILF3 / RFU 11762660_at / Fold change /veh 11762660_at / RFU VCAN (11757783_s_at) / Fold change /veh VCAN (11757783_s_at) / RFU DDX43 (11728927_at) / Fold change /veh DDX43 (11728927_at) / RFU KRT8 (11758188_x_at) / Fold change /veh KRT8 (11758188_x_at) / RFU NKD1 (11759106_at) / Fold change /veh NKD1 (11759106_at) / RFU SRD5A1 (11742802_a_at) / Fold change /veh SRD5A1 (11742802_a_at) / RFU TPSAB1 /// TPSB2 (11721975_s_at) / Fold change /veh TPSAB1 /// TPSB2 (11721975_s_at) / RFU GSTM3 (11746129_a_at) / Fold change /veh GSTM3 (11746129_a_at) / RFU IL23R (11737362_x_at) / Fold change /veh IL23R (11737362_x_at) / RFU TMEM51 (11727254_a_at) / Fold change /veh TMEM51 (11727254_a_at) / RFU PIWIL2 (11732686_x_at) / Fold change /veh PIWIL2 (11732686_x_at) / RFU ORM1 (11744905_x_at) / Fold change /veh ORM1 (11744905_x_at) / RFU CCDC152 (11743942_at) / Fold change /veh CCDC152 (11743942_at) / RFU ECM1 (11717891_a_at) / Fold change /veh ECM1 (11717891_a_at) / RFU IL23R (11748794_a_at) / Fold change /veh IL23R (11748794_a_at) / RFU TNFAIP8L3 (11732012_x_at) / Fold change /veh TNFAIP8L3 (11732012_x_at) / RFU MBOAT4 (11741988_at) / Fold change /veh MBOAT4 (11741988_at) / RFU 11764193_at / Fold change /veh 11764193_at / RFU TMEM53 (11763286_at) / Fold change /veh TMEM53 (11763286_at) / RFU MAGEB2 (11727129_at) / Fold change /veh MAGEB2 (11727129_at) / RFU TMEM200A (11744735_a_at) / Fold change /veh TMEM200A (11744735_a_at) / RFU CCDC152 (11751479_a_at) / Fold change /veh CCDC152 (11751479_a_at) / RFU FAM211A (11726209_a_at) / Fold change /veh FAM211A (11726209_a_at) / RFU RGS16 (11746705_a_at) / Fold change /veh RGS16 (11746705_a_at) / RFU VCAN (11755009_s_at) / Fold change /veh VCAN (11755009_s_at) / RFU RHOB (11743442_s_at) / Fold change /veh RHOB (11743442_s_at) / RFU RGS16 (11720943_a_at) / Fold change /veh RGS16 (11720943_a_at) / RFU RGS16 (11720944_at) / Fold change /veh RGS16 (11720944_at) / RFU, VPS4B / Fold change vs veh, VPS4B / RFU, CREB1 / Fold change vs veh, CREB1 / RFU, DNAJC13 / Fold change vs veh, DNAJC13 / RFU, GNAQ / Fold change vs veh, GNAQ / RFU, CDK5R1 / Fold change vs veh, CDK5R1 / RFU, ZRANB3 / Fold change vs veh, ZRANB3 / RFU, CUL4A / Fold change vs veh, CUL4A / RFU, CCNY / Fold change vs veh, CCNY / RFU, UFL1 / Fold change vs veh, UFL1 / RFU, COG3 / Fold change vs veh, COG3 / RFU, DIAPH2 / Fold change vs veh, DIAPH2 / RFU, SKA2 / Fold change vs veh, SKA2 / RFU, AFF3 / Fold change vs veh, AFF3 / RFU, LMF1 / Fold change vs veh, LMF1 / RFU, IPO11 / Fold change vs veh, IPO11 / RFU, DFFB / Fold change vs veh, DFFB / RFU, FOXP1 / Fold change vs veh, FOXP1 / RFU, CARD8 / Fold change vs veh, CARD8 / RFU, STRN3 / Fold change vs veh, STRN3 / RFU, ADK / Fold change vs veh, ADK / RFU, RASSF2 / Fold change vs veh, RASSF2 / RFU, WIPF1 / Fold change vs veh, WIPF1 / RFU, LARP1B / Fold change vs veh, LARP1B / RFU, RASA1 / Fold change vs veh, RASA1 / RFU, RB1 / Fold change vs veh, RB1 / RFU, PPFIA1 / Fold change vs veh, PPFIA1 / RFU, MAT2A / Fold change vs veh, MAT2A / RFU, CCT5 / Fold change vs veh, CCT5 / RFU, WDR92 / Fold change vs veh, WDR92 / RFU, CUX1 / Fold change vs veh, CUX1 / RFU, TTC7A / Fold change vs veh, TTC7A / RFU, TMEM135 / Fold change vs veh, TMEM135 / RFU, DEPTOR / Fold change vs veh, DEPTOR / RFU, CPM / Fold change vs veh, CPM / RFU, DNAJB6 / Fold change vs veh, DNAJB6 / RFU, CACNA2D3 / Fold change vs veh, CACNA2D3 / RFU, DTX4 / Fold change vs veh, DTX4 / RFU, TFCP2 / Fold change vs veh, TFCP2 / RFU, GMCL1 /// GMCL1P1 / Fold change vs veh, GMCL1 /// GMCL1P1 / RFU, AEBP2 / Fold change vs veh, AEBP2 / RFU, SNHG1 /// SNORD22 /// SNORD25 /// SNORD26 /// SNORD27 /// SNORD28 /// SNORD29 /// SNORD31 / Fold change vs veh, SNHG1 /// SNORD22 /// SNORD25 /// SNORD26 /// SNORD27 /// SNORD28 /// SNORD29 /// SNORD31 / Fold change (Aza/veh), C12orf56 (ProbeSet 11735607_a_at) / Fold change (ACY-1035/veh), C12orf56 (ProbeSet 11735607_a_at) / Fold change (Aza/veh), FGFR1OP (ProbeSet 11751329_s_at) / Fold change (ACY-1035/veh), FGFR1OP (ProbeSet 11751329_s_at) / Fold change (Aza/veh), VPS36 (ProbeSet 11739960_a_at) / Fold change (ACY-1035/veh), VPS36 (ProbeSet 11739960_a_at) / RFU SYPL1 (11715823_x_at) / Fold change /veh SYPL1 (11715823_x_at) / RFU IGFBP7 (11715501_s_at) / Fold change /veh IGFBP7 (11715501_s_at) / RFU REEP3 (11722064_at) / Fold change /veh REEP3 (11722064_at) / RFU IGLL1 (11728026_x_at) / Fold change /veh IGLL1 (11728026_x_at): dose or concentration left out as unconfirmed
Conditions: ProbeSet 11731610_x_at; LIST B

Nc1ncn([C@@H]2O[C@H](CO)[C@@H](O)[C@H]2O)c(=O)n1 [azacitidine]
RFU, KIAA1704 /// LOC100996395: 92.56 RFU
